The target in this test is T1, Saos-2 PTH1R (Homo sapiens, UniProt Q03431).
T1 construct: endogenous in cells; host or cells: Saos-2
T1 sequence (Q03431 27-593): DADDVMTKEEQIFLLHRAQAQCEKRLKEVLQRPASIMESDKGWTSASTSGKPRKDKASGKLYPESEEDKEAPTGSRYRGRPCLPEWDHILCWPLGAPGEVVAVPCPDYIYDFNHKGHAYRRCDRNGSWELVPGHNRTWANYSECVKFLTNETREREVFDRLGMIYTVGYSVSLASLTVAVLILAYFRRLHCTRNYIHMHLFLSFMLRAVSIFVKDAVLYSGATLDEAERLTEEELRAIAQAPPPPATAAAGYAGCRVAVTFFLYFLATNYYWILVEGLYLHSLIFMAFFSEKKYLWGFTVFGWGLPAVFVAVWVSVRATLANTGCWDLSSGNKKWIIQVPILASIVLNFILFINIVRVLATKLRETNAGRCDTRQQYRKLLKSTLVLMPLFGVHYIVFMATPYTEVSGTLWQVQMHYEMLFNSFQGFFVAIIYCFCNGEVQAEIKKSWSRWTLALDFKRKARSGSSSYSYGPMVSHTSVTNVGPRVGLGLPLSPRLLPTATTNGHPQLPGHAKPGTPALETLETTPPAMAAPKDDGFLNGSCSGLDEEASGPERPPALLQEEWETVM
In words: cAMP-efficacy assay in Saos-2 cells. The note with it: for EC50: cAMP, 100 μM IBMX, 37° C. 15 min, suffix of label = salt tested; for Emax ± SEM: relative effect to the control (SEQ ID NO: 32). It is filed as cell-based. The procedure: Peptides were dissolved in phosphate buffered saline and further diluted in Tyrode's buffer (TB, Sigma-Aldrich) containing 0.1% BSA and 100 μM isobutyl-methyl-xanthine (IBMX, Sigma-Aldrich). Saos-2 cells were seeded at 50,000 cells/well in 96-microtiter plates and grown for two days before the efficacy assays. On the day of analysis, the growth medium was carefully removed by suction. Cells were washed once with 200 μl TB/0.1% BSA. The buffer was replaced with 100 μl reaction mixture (±test peptide), and incubated at 37° C. for 15 min. The reaction was stopped by addition of 25 μl of ice-cold 0.5 M HCl. Cells were in the following incubated on ice for 60 min. 75 μl acetate-buffer, pH6.2, was added to each well of a 96-well cAMP FlashPlate (Perkin-Elmer). […] FlashPlates were incubated overnight at 4° C., emptied by suction and counted in a TopCounter (Packard).
Determinations were performed in single determinations or triplicates at all doses. […] Standards were included as single determinations, duplicates or triplicates in each experiment, preferentially on each plate.
Concentration-dependent cAMP responses were imported into GraphPad Prism vers. 4 (GraphPad Software), transformed and plotted. […] Thus, a four-parameter logistic equation was used for determination of the EC50 values. Curves were fitted with a function for sigmoidal dose response curve (variable slope) non-linear fit Y=Bottom+(Top-Bottom)/(1+10̂((LogEC50−X)*HillSlope)) where X is the logarithm of concentration and Y is the response. Y starts at Bottom and goes to Top with a sigmoid shape. pEC50, Hill-coefficient and the maximally inducible concentration of cAMP (Emax) were evaluated.
Overall statistical differences were analyzed with Statistica (Statsoft) using one-way ANOVA. Post-hoc comparisons were made by the use of Fisher's Least Significance Test. Results were considered significant, when p was lower than 0.05.

The structures appear in SMILES notation. Bridge positions count the residues as written; N and C are the ends. Square brackets hold non-standard residues; d marks the D form. Peptide text beside a SMILES is read from it. hArg = N=C(N)NCCCC[C@H](N)C(=O)O; Ac5c = NC1(C(=O)O)CCCC1; Nva = CCC[C@H](N)C(=O)O; Abu = CC[C@H](N)C(=O)O; Aib = CC(C)(N)C(=O)O

Here are results for 9 compounds from patent US20100048462A1, “TRUNCATED PTH PEPTIDES WITH A CYCLIC CONFORMATION” (Zealand Pharma A/S, priority 2006, published 2010).

In general, EC50 refers to the concentration needed to bring the measured effect to its halfway point.

Turning to `CC[C@H](C)[C@H](NC(=O)[C@H](CCC(=O)O)NC(=O)C1(NC(=O)[C@@H](NC(=O)C2(N)CCCC2)C(C)C)CCCC1)C(=O)N[C@@H](CCC(N)=O)C(=O)N[C@@H](CC(C)C)C(=O)N[C@@H](CC(C)C)C(=O)N[C@@H](Cc1c[nH]cn1)C(=O)N[C@@H](CCC(N)=O)C(=O)N[C@@H](CCCCNC(=N)N)C(=O)N[C@@H](C)C(=O)N[C@H]1CCCCNC(=O)C[C@@H](C(N)=O)NC(=O)[C@H](CC(N)=O)NC(=O)[C@H](CC(C)C)NC(=O)[C@H](Cc2c[nH]c3ccccc23)NC1=O` [SEQ ID NO: 14, H-Ac5c-Val-Ac5c-Glu-Ile-Gln-Leu-Leu-His-Gln-Har-Ala-Lys( )-Trp-Leu-Asn-Asp( )-NH2] (H-[Ac5c]V[Ac5c]EIQLLHQ[hArg]AKWLND-NH2; lactam 13-17), the EC50 is 35.5 nM and the “Emax ± SEM” value is 1.03 ± 0.05.
Taken in the same sequence, the figures for `CC[C@H](NC(=O)[C@@H](NC(=O)C1(N)CCCC1)C(C)C)C(=O)N[C@@H](CCC(=O)O)C(=O)N[C@H](C(=O)N[C@@H](CCC(N)=O)C(=O)N[C@@H](CC(C)C)C(=O)N[C@@H](CC(C)C)C(=O)N[C@@H](Cc1c[nH]cn1)C(=O)N[C@@H](CCC(N)=O)C(=O)N[C@@H](CCCCNC(=N)N)C(=O)N[C@@H](C)C(=O)N[C@H]1CCCCNC(=O)C[C@@H](C(N)=O)NC(=O)[C@H](CC(N)=O)NC(=O)[C@H](CC(C)C)NC(=O)[C@H](Cc2c[nH]c3ccccc23)NC1=O)[C@@H](C)CC` [SEQ ID NO: 15, H-Ac5c-Val-Abu-Glu-Ile-Gln-Leu-Leu-His-Gln-Har-Ala-Lys( )-Trp-Leu-Asn-Asp( )-NH2] (H-[Ac5c]V[Abu]EIQLLHQ[hArg]AKWLND-NH2; lactam 13-17) were 60.3 nM and 1.04 ± 0.03.
With `CCC[C@H](NC(=O)[C@@H](NC(=O)C1(N)CCCC1)C(C)C)C(=O)N[C@@H](CCC(=O)O)C(=O)N[C@H](C(=O)N[C@@H](CCC(N)=O)C(=O)N[C@@H](CC(C)C)C(=O)N[C@@H](CC(C)C)C(=O)N[C@@H](Cc1c[nH]cn1)C(=O)N[C@@H](CCC(N)=O)C(=O)N[C@@H](CCCCNC(=N)N)C(=O)N[C@@H](C)C(=O)N[C@H]1CCCCNC(=O)C[C@@H](C(N)=O)NC(=O)[C@H](CC(N)=O)NC(=O)[C@H](CC(C)C)NC(=O)[C@H](Cc2c[nH]c3ccccc23)NC1=O)[C@@H](C)CC` [SEQ ID NO: 16, H-Ac5c-Val-Nva-Glu-Ile-Gln-Leu-Leu-His-Gln-Har-Ala-Lys( )-Trp-Leu-Asn-Asp( )-NH2] (H-[Ac5c]V[Nva]EIQLLHQ[hArg]AKWLND-NH2; lactam 13-17), the EC50 was 120 nM and the “Emax ± SEM” value was found to be 1.03 ± 0.04.
Consider `CC[C@H](C)[C@H](NC(=O)[C@H](CCC(=O)O)NC(=O)C(C)(C)NC(=O)[C@@H](NC(=O)C1(N)CCCC1)C(C)C)C(=O)N[C@@H](CCC(N)=O)C(=O)N[C@@H](CC(C)C)C(=O)N[C@@H](CC(C)C)C(=O)N[C@@H](Cc1c[nH]cn1)C(=O)N[C@@H](CCC(N)=O)C(=O)N[C@@H](CCCCNC(=N)N)C(=O)N[C@@H](C)C(=O)N[C@H]1CCCCNC(=O)C[C@@H](C(N)=O)NC(=O)[C@H](CC(=O)O)NC(=O)[C@H](CC(C)C)NC(=O)[C@H](Cc2c[nH]c3ccccc23)NC1=O` [SEQ ID NO: 22, H-Ac5c-Val-Aib-Glu-Ile-Gln-Leu-Leu-His-Gln-Har-Ala-Lys( )-Trp-Leu-Asp-Asp( )-NH2] (H-[Ac5c]V[Aib]EIQLLHQ[hArg]AKWLDD-NH2; lactam 13-17), for which the EC50 was 74.1 nM and the “Emax ± SEM” value was 1.08 ± 0.04.
Taken in the same sequence, the figures for `CC[C@H](C)[C@H](NC(=O)[C@H](CCC(=O)O)NC(=O)C(C)(C)NC(=O)[C@@H](NC(=O)C1(N)CCCC1)C(C)C)C(=O)N[C@@H](CCC(N)=O)C(=O)N[C@@H](CC(C)C)C(=O)N[C@@H](CCSC)C(=O)N[C@@H](Cc1c[nH]cn1)C(=O)N[C@@H](CCC(N)=O)C(=O)N[C@@H](CCCCNC(=N)N)C(=O)N[C@@H](C)C(=O)N[C@H]1CCCCNC(=O)C[C@@H](C(N)=O)NC(=O)[C@H](CC(=O)O)NC(=O)[C@H](CC(C)C)NC(=O)[C@H](Cc2c[nH]c3ccccc23)NC1=O` [SEQ ID NO: 23, H-Ac5c-Val-Aib-Glu-Ile-Gln-Leu-Met-His-Gln-Har-Ala-Lys( )-Trp-Leu-Asp-Asp( )-NH2] (H-[Ac5c]V[Aib]EIQLMHQ[hArg]AKWLDD-NH2; lactam 13-17) were 33.1 nM and 1.16 ± 0.08.
Taken in the same sequence, the figures for `CC[C@H](C)[C@H](NC(=O)[C@H](CCC(=O)O)NC(=O)C(C)(C)NC(=O)[C@@H](NC(=O)C1(N)CCCC1)C(C)C)C(=O)N[C@@H](CCC(N)=O)C(=O)N[C@@H](CC(C)C)C(=O)N[C@@H](CCSC)C(=O)N[C@@H](Cc1c[nH]cn1)C(=O)N[C@@H](CCC(N)=O)C(=O)N[C@@H](CCCNC(=N)N)C(=O)N[C@@H](C)C(=O)N[C@H]1CCCCNC(=O)C[C@@H](C(N)=O)NC(=O)[C@H](CC(N)=O)NC(=O)[C@H](CC(C)C)NC(=O)[C@H](Cc2c[nH]c3ccccc23)NC1=O` [SEQ ID NO: 25] (H-[Ac5c]V[Aib]EIQLMHQRAKWLND-NH2; lactam 13-17) were 8.91 nM and 1.04 ± 0.03.
Taken in the same sequence, the figures for `CC[C@H](C)[C@H](NC(=O)[C@H](CCC(=O)O)NC(=O)C(C)(C)NC(=O)[C@@H](NC(=O)C1(N)CCCC1)C(C)C)C(=O)N[C@@H](CCC(N)=O)C(=O)N[C@@H](CC(C)C)C(=O)N[C@@H](CCSC)C(=O)N[C@@H](Cc1c[nH]cn1)C(=O)N[C@@H](CCC(N)=O)C(=O)N[C@@H](CCCCNC(=N)N)C(=O)N[C@@H](C)C(=O)N[C@H]1CCCCNC(=O)C[C@@H](C(N)=O)NC(=O)[C@H](CC(N)=O)NC(=O)[C@H](CC(C)C)NC(=O)[C@H](Cc2ccccc2)NC1=O` [SEQ ID NO: 26, H-Ac5c-Val-Aib-Glu-Ile-Gln-Leu-Met-His-Gln-Har-Ala-Lys( )-Phe-Leu-Asn-Asp( )-NH2] (H-[Ac5c]V[Aib]EIQLMHQ[hArg]AKFLND-NH2; lactam 13-17) were 12.6 nM and 1.08 ± 0.09.
`CC[C@H](C)[C@H](NC(=O)[C@H](CCC(=O)O)NC(=O)C(C)(C)NC(=O)[C@@H](NC(=O)C1(N)CCCC1)C(C)C)C(=O)N[C@@H](CCC(N)=O)C(=O)N[C@@H](Cc1ccccc1)C(=O)N[C@@H](CC(C)C)C(=O)N[C@@H](Cc1c[nH]cn1)C(=O)N[C@@H](CCC(N)=O)C(=O)N[C@@H](CCCCNC(=N)N)C(=O)N[C@@H](C)C(=O)N[C@H]1CCCCNC(=O)C[C@@H](C(N)=O)NC(=O)[C@H](CC(N)=O)NC(=O)[C@H](CC(C)C)NC(=O)[C@H](Cc2c[nH]c3ccccc23)NC1=O` [SEQ ID NO: 27, H-Ac5c-Val-Aib-Glu-Ile-Gln-Phe-Leu-His-Gln-Har-Ala-Lys( )-Trp-Leu-Asn-Asp( )-NH2] (H-[Ac5c]V[Aib]EIQFLHQ[hArg]AKWLND-NH2; lactam 13-17): the EC50 was 12.3 nM and the “Emax ± SEM” value amounted to 0.92 ± 0.06.
`CC[C@H](C)[C@H](NC(=O)[C@H](CCC(=O)O)NC(=O)C(C)(C)NC(=O)[C@@H](NC(=O)C1(N)CCCC1)C(C)C)C(=O)N[C@@H](CCC(N)=O)C(=O)N[C@@H](CC(C)C)C(=O)N[C@@H](CC(C)C)C(=O)N[C@@H](Cc1c[nH]cn1)C(=O)N[C@@H](CCC(N)=O)C(=O)N[C@@H](CCCCNC(=N)N)C(=O)N[C@@H](CCCNC(=N)N)C(=O)N[C@H]1CCCCNC(=O)C[C@@H](C(N)=O)NC(=O)[C@H](CC(N)=O)NC(=O)[C@H](CC(C)C)NC(=O)[C@H](Cc2c[nH]c3ccccc23)NC1=O` [SEQ ID NO: 28, H-Ac5c-Val-Aib-Glu-Ile-Gln-Leu-Leu-His-Gln-Har-Arg-Lys( )-Trp-Leu-Asn-Asp( )-NH2] (H-[Ac5c]V[Aib]EIQLLHQ[hArg]RKWLND-NH2; lactam 13-17): the EC50 is 5.37 nM and the “Emax ± SEM” value came to 0.95 ± 0.06.
